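These data come from cells grown in 96-well plates and exposed to compound for 48 hours at five concentrations. At the GI50, growth is halved. The concentration for full growth arrest is given as TGI.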
Tested on: OVCAR-5 ovarian
Test: NCI tumour cell line growth inhibition, 48 h

SMILES	TGI [µM]	GI50 [µM]
O=C1c2cc3c(cc2CC12Cc1ccc4c(c1C2=O)CCC4)CCCC3 (stereo unspecified)	> 100	
N#Cc1nc(-c2cnccn2)oc1N	> 100	
NC(=S)N/N=C1\c2cc(Cl)ccc2-c2c1cc(Cl)cc2[N+](=O)[O-]	> 100	11

Tested on: HL-60(TB) leukemia
Test: NCI tumour cell line growth inhibition, 48 h

SMILES	TGI [µM]	GI50 [µM]
CC#Cc1ccc(-c2ccccc2)s1	> 100	
CCNC(=O)C#Cc1ccc2c(C(=Nc3ccc(CN(C)C)cc3)c3ccccc3)c(O)[nH]c2c1	0.932	0.00976
O=C1c2cc3c(cc2CC12Cc1ccc4c(c1C2=O)CCC4)CCCC3 (stereo unspecified)	> 100	
N#Cc1nc(-c2cnccn2)oc1N	> 100	
NC(=S)N/N=C1\c2cc(Cl)ccc2-c2c1cc(Cl)cc2[N+](=O)[O-]	51.9	6.15

Tested on: KM12 colon
Test: NCI tumour cell line growth inhibition, 48 h

SMILES	TGI [µM]	GI50 [µM]
CC1(C)[C@@H](Cn2cc(I)c(=O)[nH]c2=O)CC[C@@]1(C)CO	> 100	
CC#Cc1ccc(-c2ccccc2)s1	> 100	
CCNC(=O)C#Cc1ccc2c(C(=Nc3ccc(CN(C)C)cc3)c3ccccc3)c(O)[nH]c2c1	> 10	0.0323
N#Cc1nc(-c2cnccn2)oc1N	> 100	
NC(=S)N/N=C1\c2cc(Cl)ccc2-c2c1cc(Cl)cc2[N+](=O)[O-]	88.8	5.14

Tested on: OVCAR-8 ovarian
Test: NCI tumour cell line growth inhibition, 48 h

SMILES	TGI [µM]	GI50 [µM]
CC#Cc1ccc(-c2ccccc2)s1	> 100	
CCNC(=O)C#Cc1ccc2c(C(=Nc3ccc(CN(C)C)cc3)c3ccccc3)c(O)[nH]c2c1	> 10	1.04
O=C1c2cc3c(cc2CC12Cc1ccc4c(c1C2=O)CCC4)CCCC3 (stereo unspecified)	> 100	
N#Cc1nc(-c2cnccn2)oc1N	> 100	
NC(=S)N/N=C1\c2cc(Cl)ccc2-c2c1cc(Cl)cc2[N+](=O)[O-]	> 100	4.62

Tested on: NCI-H460 lung
Test: NCI tumour cell line growth inhibition, 48 h

SMILES	TGI [µM]	GI50 [µM]
CC#Cc1ccc(-c2ccccc2)s1	> 100	
CCNC(=O)C#Cc1ccc2c(C(=Nc3ccc(CN(C)C)cc3)c3ccccc3)c(O)[nH]c2c1	1.96	0.0106
O=C1c2cc3c(cc2CC12Cc1ccc4c(c1C2=O)CCC4)CCCC3 (stereo unspecified)	> 100	
NC(=S)N/N=C1\c2cc(Cl)ccc2-c2c1cc(Cl)cc2[N+](=O)[O-]	20.7	3.27

Tested on: MOLT-4 leukemia
Test: NCI tumour cell line growth inhibition, 48 h

SMILES	TGI [µM]	GI50 [µM]
CC#Cc1ccc(-c2ccccc2)s1	> 100	
CCNC(=O)C#Cc1ccc2c(C(=Nc3ccc(CN(C)C)cc3)c3ccccc3)c(O)[nH]c2c1	2.76	0.199
O=C1c2cc3c(cc2CC12Cc1ccc4c(c1C2=O)CCC4)CCCC3 (stereo unspecified)	> 100	
N#Cc1nc(-c2cnccn2)oc1N	> 100	
NC(=S)N/N=C1\c2cc(Cl)ccc2-c2c1cc(Cl)cc2[N+](=O)[O-]	23.6	3.21

Tested on: NCI/ADR-RES ovarian
Test: NCI tumour cell line growth inhibition, 48 h

SMILES	TGI [µM]	GI50 [µM]
CC1(C)[C@@H](Cn2cc(I)c(=O)[nH]c2=O)CC[C@@]1(C)CO	> 100	
CC#Cc1ccc(-c2ccccc2)s1	> 100	
CCNC(=O)C#Cc1ccc2c(C(=Nc3ccc(CN(C)C)cc3)c3ccccc3)c(O)[nH]c2c1	> 10	1.7
O=C1c2cc3c(cc2CC12Cc1ccc4c(c1C2=O)CCC4)CCCC3 (stereo unspecified)	> 100	
NC(=S)N/N=C1\c2cc(Cl)ccc2-c2c1cc(Cl)cc2[N+](=O)[O-]	> 100	4.76

Tested on: HOP-62 NSCLC
Test: NCI tumour cell line growth inhibition, 48 h

SMILES	TGI [µM]	GI50 [µM]
CC1(C)[C@@H](Cn2cc(I)c(=O)[nH]c2=O)CC[C@@]1(C)CO	> 100	
CCNC(=O)C#Cc1ccc2c(C(=Nc3ccc(CN(C)C)cc3)c3ccccc3)c(O)[nH]c2c1	> 3.76	0.109
O=C1c2cc3c(cc2CC12Cc1ccc4c(c1C2=O)CCC4)CCCC3 (stereo unspecified)	> 100	
N#Cc1nc(-c2cnccn2)oc1N	> 100	
NC(=S)N/N=C1\c2cc(Cl)ccc2-c2c1cc(Cl)cc2[N+](=O)[O-]	74.7	7.12

Tested on: RXF 393 renal
Test: NCI tumour cell line growth inhibition, 48 h

SMILES	TGI [µM]	GI50 [µM]
CC1(C)[C@@H](Cn2cc(I)c(=O)[nH]c2=O)CC[C@@]1(C)CO	> 100	
CC#Cc1ccc(-c2ccccc2)s1	> 100	
CCNC(=O)C#Cc1ccc2c(C(=Nc3ccc(CN(C)C)cc3)c3ccccc3)c(O)[nH]c2c1	0.703	0.123
O=C1c2cc3c(cc2CC12Cc1ccc4c(c1C2=O)CCC4)CCCC3 (stereo unspecified)	> 100	
N#Cc1nc(-c2cnccn2)oc1N	> 100	
NC(=S)N/N=C1\c2cc(Cl)ccc2-c2c1cc(Cl)cc2[N+](=O)[O-]	89.4	10.4

Tested on: MALME-3M melanoma
Test: NCI tumour cell line growth inhibition, 48 h

SMILES	GI50 [µM]	TGI [µM]
CCNC(=O)C#Cc1ccc2c(C(=Nc3ccc(CN(C)C)cc3)c3ccccc3)c(O)[nH]c2c1	0.00358	0.0268
O=C1c2cc3c(cc2CC12Cc1ccc4c(c1C2=O)CCC4)CCCC3 (stereo unspecified)		> 100
NC(=S)N/N=C1\c2cc(Cl)ccc2-c2c1cc(Cl)cc2[N+](=O)[O-]	9.26	87.4

Tested on: MDA-N
Test: NCI tumour cell line growth inhibition, 48 h

SMILES	TGI [µM]
CC1(C)[C@@H](Cn2cc(I)c(=O)[nH]c2=O)CC[C@@]1(C)CO	> 100
CC#Cc1ccc(-c2ccccc2)s1	> 100
O=C1c2cc3c(cc2CC12Cc1ccc4c(c1C2=O)CCC4)CCCC3 (stereo unspecified)	> 100
N#Cc1nc(-c2cnccn2)oc1N	> 100

Tested on: SK-MEL-2 melanoma
Test: NCI tumour cell line growth inhibition, 48 h

SMILES	TGI [µM]	GI50 [µM]
CC1(C)[C@@H](Cn2cc(I)c(=O)[nH]c2=O)CC[C@@]1(C)CO	> 100	
CC#Cc1ccc(-c2ccccc2)s1	> 100	
CCNC(=O)C#Cc1ccc2c(C(=Nc3ccc(CN(C)C)cc3)c3ccccc3)c(O)[nH]c2c1	0.228	0.0323
O=C1c2cc3c(cc2CC12Cc1ccc4c(c1C2=O)CCC4)CCCC3 (stereo unspecified)	> 100	
N#Cc1nc(-c2cnccn2)oc1N	> 100	
NC(=S)N/N=C1\c2cc(Cl)ccc2-c2c1cc(Cl)cc2[N+](=O)[O-]	89.8	7.96

Tested on: K-562 leukemia
Test: NCI tumour cell line growth inhibition, 48 h

SMILES	TGI [µM]	GI50 [µM]
CC1(C)[C@@H](Cn2cc(I)c(=O)[nH]c2=O)CC[C@@]1(C)CO	> 100	
CCNC(=O)C#Cc1ccc2c(C(=Nc3ccc(CN(C)C)cc3)c3ccccc3)c(O)[nH]c2c1	3.92	0.344
O=C1c2cc3c(cc2CC12Cc1ccc4c(c1C2=O)CCC4)CCCC3 (stereo unspecified)	> 100	
N#Cc1nc(-c2cnccn2)oc1N	> 100	
NC(=S)N/N=C1\c2cc(Cl)ccc2-c2c1cc(Cl)cc2[N+](=O)[O-]	> 100	4.76

Tested on: RPMI-8226 leukemia
Test: NCI tumour cell line growth inhibition, 48 h

SMILES	GI50 [µM]	TGI [µM]
CCNC(=O)C#Cc1ccc2c(C(=Nc3ccc(CN(C)C)cc3)c3ccccc3)c(O)[nH]c2c1	0.434	3.19
O=C1c2cc3c(cc2CC12Cc1ccc4c(c1C2=O)CCC4)CCCC3 (stereo unspecified)		> 100
N#Cc1nc(-c2cnccn2)oc1N		> 100
NC(=S)N/N=C1\c2cc(Cl)ccc2-c2c1cc(Cl)cc2[N+](=O)[O-]	3.44	20.5

Tested on: EKVX NSCLC
Test: NCI tumour cell line growth inhibition, 48 h

SMILES	TGI [µM]	GI50 [µM]
CC1(C)[C@@H](Cn2cc(I)c(=O)[nH]c2=O)CC[C@@]1(C)CO	> 100	
CC#Cc1ccc(-c2ccccc2)s1	> 100	
CCNC(=O)C#Cc1ccc2c(C(=Nc3ccc(CN(C)C)cc3)c3ccccc3)c(O)[nH]c2c1	> 10	0.47
O=C1c2cc3c(cc2CC12Cc1ccc4c(c1C2=O)CCC4)CCCC3 (stereo unspecified)	> 100	
N#Cc1nc(-c2cnccn2)oc1N	> 100	
NC(=S)N/N=C1\c2cc(Cl)ccc2-c2c1cc(Cl)cc2[N+](=O)[O-]	95.6	4.65

Tested on: SK-OV-3 ovarian
Test: NCI tumour cell line growth inhibition, 48 h

SMILES	TGI [µM]	GI50 [µM]
CC1(C)[C@@H](Cn2cc(I)c(=O)[nH]c2=O)CC[C@@]1(C)CO	> 100	
CCNC(=O)C#Cc1ccc2c(C(=Nc3ccc(CN(C)C)cc3)c3ccccc3)c(O)[nH]c2c1	> 10	1.86
O=C1c2cc3c(cc2CC12Cc1ccc4c(c1C2=O)CCC4)CCCC3 (stereo unspecified)	> 100	
N#Cc1nc(-c2cnccn2)oc1N	> 100	
NC(=S)N/N=C1\c2cc(Cl)ccc2-c2c1cc(Cl)cc2[N+](=O)[O-]	> 100	9.4

Tested on: DU-145 prostate
Test: NCI tumour cell line growth inhibition, 48 h

SMILES	TGI [µM]
CC1(C)[C@@H](Cn2cc(I)c(=O)[nH]c2=O)CC[C@@]1(C)CO	> 100

— PubChem BioAssay (NCI)
